Entries after “also recorded” stand apart in the source; their conditions may differ.
How the values were obtained:
[1] = test system: MCF-7 cells; assay: Inhibition of MCF-7 breast cancer cell growth (sulforhodamine B); format: cell-based; conditions: Homo sapiens, MCF7; 48 hours drug exposure; ± SD
Protocol: (§1) Electrophoretically homogeneous bovine brain tubulin was prepared as described previously (20). Nonradiolabeled colchicine was obtained from Sigma and [^3 H]colchicine from Dupont-NEN. Stock 2.0 M solutions of monosodium glutamate were adjusted to pH 6.6 with HCl. MCF-7 breast cancer cells were obtained from Dr. D. Scudiero, National Cancer Institute. Curacin A is referred to in the tables provided below, and was obtained as stated in Gerwick's U.S. Pat. No. 5,324,739. All data presented for curacin A represent averages obtained in contemporaneous experiments with natural and synthetic drug. All drugs were dissolved in dimethyl sulfoxide, and control reaction mixtures contained an equivalent amount of the solvent.
IC50 values for inhibition of cell growth were obtained by measuring the amount of total cell protein with the sulforhodamine B assay as described by Skehan et al., "New Colorimetric Cytotoxicity Assay for Anticancer-drug Screening," J. Natl. Cancer Inst., 82:1107-1112 (1990). MCF-7 cells were grown in RPMI 1640 medium containing 17% fetal calf serum, 12 μg/mL gentamicin sulfate and 2 mM glutamine at 37° in 5% CO2. Confluent cells were trypsinized, diluted 40-fold, and seeded into 96-well microtiter plates. After 24 hours of growth without drug, medium with varying concentrations of drug was added to different wells (final concentration of dimethyl sulfoxide, 0.1%). […] The values presented are averages from at least two independent experiments.
(§2) The R1 -R3 substituents referred to in Table 1 are with reference to Formula 11, which, for convenience, is reproduced above Table 1. [drawing 13]

[2] = test system: tubulin; assay: Inhibition of tubulin polymerization (turbidimetric, 350 nm); format: biochemical, bovine; conditions: 1.0 mg/mL tubulin, 0.8 M glutamate, 30°, 20 minutes; ± SD
Protocol: as §1
Tubulin polymerization was followed turbidimetrically at 350 nm in Gilford model 250 spectrophotometers equipped with electronic temperature controllers. All concentrations refer to the final reaction volume of 0.25 mL, although the preincubation was performed in 0.24 mL, followed by addition of 10 μL of 10 mM GTP. Reaction mixtures contained 1.0 mg/mL tubulin, 0.8 M monosodium glutamate, 4% dimethyl sulfoxide and varying drug concentrations. Samples were preincubated for 15 minutes at 30° and chilled on ice. GTP was added to each reaction mixture, and these were placed in cuvettes held at 0°. Baselines were established, the temperature was raised to 30° (at a rate of about 0.5°/sec), and polymerization was followed for 20 minutes. IC50 values were determined by graphical interpolation of experimental points, with drug-containing samples compared to control reaction mixtures containing dimethyl sulfoxide but no drug. At least three independent IC50 values were obtained with each compound.
as §2

[3] = test system: tubulin; assay: Inhibition of [3H]colchicine binding to tubulin (DEAE-cellulose filter method); design: species or system bovine; conditions: 5.0 μM [3H]colchicine, 1.0 μM tubulin; for Inhibition of Colchicine Binding % Inhibition ± SD: inhibitor 5.0 μM; for Inhibition of Colchicine Binding % Inhibition ± SD (values in parentheses): inhibitor 50 μM
Protocol: as §1
The binding of [^3 H]colchicine to tubulin was measured by the DEAE-cellulose filter method as described by Kang et al., "N-acetylcolchinol O-methyl Ether and Thiocolchicine, Potent Analogs of Colchicine Modified in the C Ring: Evaluation of the Mechanistic Basis for Their Enhanced Biological Properties," J. Biol. Chem. 265:10255-1-259 (1990). Reaction mixtures contained 1.0 μM (0.1 mg/mL) tubulin, 1.0 M monosodium glutamate, 0.1 M glucose-1-phosphate, 1.0 mM MgCl2, 1.0 mM GTP, 0.5 mg/mL bovine serum albumin, 5% (v/v) dimethyl sulfoxide, 5.0 μM [^3 H]colchicine and inhibitor at either 5.0 or 50 μM as indicated. These reaction conditions were used because they strongly stabilize the colchicine binding activity of tubulin. The values presented represent averages of three experiments, each with duplicate samples.
as §2

[4] = Chemical stability on storage neat
[5] = test system: antimitotic activity; assay: Biological activity of isolated curacins; conditions: various tests
[6] = test system: microtubule ends; conditions: low concentrations; background; cited from earlier work
[7] = test system: tubulin; conditions: background; cited from earlier work
[8] = stored neat; cited from earlier work
[9] = test system: colchicine site of tubulin; conditions: background; cited from earlier work
[10] = test system: microtubule assembly; conditions: background; cited from earlier work
[11] = test system: brine shrimp; conditions: Example 1 of U.S. Pat. No. 5,324,739; cited from earlier work
[12] = test system: cell growth and mitosis; conditions: background; cited from earlier work
[13] = test system: β-tubulin; conditions: background; cited from earlier work
[14] = test system: 60 different human tumor cell lines; assay: NCI 60-cell line screen / mode of action of curazole; format: cell-based; conditions: COMPARE mean-graph profiles / 60-cell line assay
Protocol: In these examples, curazole was subjected to the drug screening procedure employed by the National Cancer Institute for the screening of drugs having possible anticancer utility. The screening procedure employed a diverse, disease-oriented panel consisting of 60 different human tumor cell lines organized into seven disease-specific subpanels. Curazole was tested over a wide range of concentrations for cytotoxic or growth-inhibitory effects against each cell line comprising the panel. The seven subpanels represented diverse histologies (leukemias, melanomas, and tumors of the lung, colon, kidney, ovary, and brain).
Curazole was tested over a period of several days. During this period the cells were continuously exposed to five log10 -spaced concentrations of the drug starting at about 10^-4 μg/mL. The tests produced 60 individual dose-response curves, one for each cell line (i.e., one for each example).
To produce data for the mean-graph format shown in FIG. 2, a concentration of the extract that produced a target level response was calculated for each cell line. Three different response parameters were evaluated. […] The second response parameter was the total growth inhibition ("TGI"), which is the concentration at which the number of tumor cells remaining at the end of the incubation period substantially equaled the number of tumor cells existing at the start of the incubation period. […]

For C=CCCc1nc(/C=C\CC/C=C/C=C(\C)CC[C@H](CC=C)OC)cs1 [1-butene derivative], the IC50 [1] was 300 ± 200 nM, the IC50 [2] was 920 ± 200 nM and the “Inhibition of Colchicine Binding % Inhibition ± SD” value [3] was 83 ± 6%.
For CCC[C@@H](CC/C(C)=C/C=C/CCCC[C@@H]1CSC([C@@H]2C[C@@H]2C)=N1)OC [C3,4,15,16 Tetrahydro, 3,4,15,16-tetrahydrocuracin A], the IC50 [1] was 3300 ± 2000 nM, the IC50 [2] was 4600 ± 1000 nM and the “Inhibition of Colchicine Binding % Inhibition ± SD” value [3] was 1 ± 1%. For the same compound, the “Inhibition of Colchicine Binding % Inhibition ± SD (values in parentheses)” value [3] was 28 ± 6%.
For C=CCC1(CC/C(C)=C/C=C/CC/C=C\[C@@H]2CSC([C@@H]3C[C@@H]3C)=N2)OCCO1 [C13 Ethylene-dioxy], the IC50 [1] was 30 ± 10 nM, the IC50 [2] was 780 ± 300 nM and the “Inhibition of Colchicine Binding % Inhibition ± SD” value [3] was 92 ± 1%.
For C=CC[C@H](O)CC/C(C)=C/C=C/CC/C=C\[C@@H]1CSC([C@H]2C[C@@H]2C)=N1 [C13 Hydroxyl, Epi C19], the IC50 [1] was 610 ± 200 nM, the IC50 [2] was 730 ± 100 nM and the “Inhibition of Colchicine Binding % Inhibition ± SD” value [3] was 71 ± 5%.
For C=CC[C@H](O)CC/C(C)=C/C=C/CC/C=C\[C@@H]1CSC([C@@H]2C[C@@H]2C)=N1 [C13 Hydroxyl], the IC50 [1] was 450 ± 20 nM, the IC50 [2] was 870 ± 90 nM and the “Inhibition of Colchicine Binding % Inhibition ± SD” value [3] was 82 ± 7%.
For C=CC[C@@H](CC/C(C)=C/C=C/CC/C=C\[C@@H]1CSC([C@H]2C[C@@H]2C)=N1)OCOC [C13 Methyl-methoxy, Epi C19], the IC50 [1] was 3100 ± 2000 nM, the IC50 [2] was 3200 ± 300 nM and the “Inhibition of Colchicine Binding % Inhibition ± SD” value [3] was 16 ± 3%. For the same compound, the “Inhibition of Colchicine Binding % Inhibition ± SD (values in parentheses)” value [3] was 32 ± 4%.
In the case of C=CC[C@@H](CC/C(C)=C/C=C/CC/C=C\[C@@H]1CSC([C@@H]2C[C@@H]2C)=N1)OCOC [C13 Methyl-methoxy], the IC50 [1] is reported as 220 nM, the IC50 [2] is reported as 640 ± 200 nM and the “Inhibition of Colchicine Binding % Inhibition ± SD” value [3] is reported as 81 ± 6%.
In the case of CCC[C@@H](CC/C(C)=C/C=C/CC/C=C\[C@@H]1CSC([C@@H]2C[C@@H]2C)=N1)OC [C15,16-dihydro], the IC50 [1] is reported as 46 nM, the IC50 [2] is reported as 1200 ± 200 nM and the “Inhibition of Colchicine Binding % Inhibition ± SD” value [3] is reported as 85 ± 7%.
In the case of C=CC[C@@H](CC/C(C)=C/C=C/CC/C=C\[C@@H]1CSC([C@@H]2C[C@@H]2C)=N1)OC [Curacin A], the IC50 [1] is reported as 38 ± 10 nM, the IC50 [2] is reported as 720 ± 200 nM and the stability ([4]; particularly when stored neat) is reported as “limited stability”. The “biological activity after storage neat” value ([4]; stored neat versus stored under a solvent) was “less biological activity than curacin A stored under a solvent”, the “biological activity, particularly antimitotic activity” value [5] was “substantial biological activity, particularly antimitotic activity” and the “tubulin turnover at microtubule ends” value [6] was “increase tubulin turnover at microtubule ends”. The “Inhibition of Colchicine Binding % Inhibition ± SD” value [3] was 94 ± 2%, the “uncoupled GTPase reaction” value [7] was “stimulated the uncoupled GTPase reaction” and the chemical stability [8] was “limited chemical stability”. For the same compound, the “binding at colchicine site of tubulin” value [9] was “binding rapidly and dissociating slowly from tubulin; also recorded: binding rapidly and tightly at the colchicine site of tubulin”, the “inhibition of the binding of colchicine to tubulin” value [9] was “potent competitive inhibitor of the binding of colchicine to tubulin” and the “inhibition of microtubule assembly” value [10] was “inhibits microtubule assembly”. The “effectiveness for reducing a population of arthropods (brine shrimp)” value [11] was “effectiveness”, the “inhibition of cell growth and mitosis” value [12] was “potent inhibitor of cell growth and mitosis” and the “formation of the cys239-cys354 cross link” value [13] was “inhibits formation of the cys239-cys354 cross link”.
For C=CC[C@@H](CC/C(C)=C/C=C\CC/C=C\[C@@H]1CSC([C@@H]2C[C@@H]2C)=N1)OC [Curacin B], the “biological activity, particularly antimitotic activity” value [5] was “substantial biological activity, particularly antimitotic activity”.
For C=CC[C@@H](CC/C(C)=C\C=C\CC/C=C\[C@@H]1CSC([C@@H]2C[C@@H]2C)=N1)OC [Curacin C], the “biological activity, particularly antimitotic activity” value [5] was “substantial biological activity, particularly antimitotic activity”.
In the case of C=CC[C@@H](CC/C=C/C=C/CC/C=C\[C@@H]1CSC([C@@H]2C[C@@H]2C)=N1)OC [Curacin D], the IC50 [1] is reported as 340 ± 100 nM, the “biological activity, particularly antimitotic activity” value [5] is reported as “substantial biological activity, particularly antimitotic activity” and the “Inhibition of Colchicine Binding % Inhibition ± SD” value [3] is reported as 53 ± 10%.
For C=CC[C@@H](CC/C(C)=C/C=C/CC/C=C\c1csc([C@@H]2C[C@@H]2C)n1)OC [Curazole, [13R,19R,21S]-1,2-didehydrocuracin A], the IC50 [1] was 300 ± 70 nM, the IC50 [2] was 740 ± 10 nM and the “Inhibition of Colchicine Binding % Inhibition ± SD” value [3] was 74 ± 11%. The mode of action [14] was “functions as an antimitotic and has a mode of action similar to a number of conventional antineoplastics”.

From US6057348A (Oregon State University, priority 1998, dated 2000)
